We go through one compound from US5914242A, “Method for diminishing myocardial infarction using protein phosphatase inhibitors” (priority 1997, dated 1999).

Molecules are shown by their SMILES.

The series has as its system isolated rabbit hearts. Briefly: Controlled coronary occlusion in isolated perfused (Langendorff) rabbit hearts, infarct size as % of risk zone. As to conditions: for infarct size, % of the risk zone: control 33%. As for the experimental part: New Zealand white rabbits were anesthetized with intravenous sodium pentobarbital (30 mg/kg). The trachea was intubated and mechanical ventilation was achieved. After a left thoracotomy, a snare was passed around the coronary artery and the hearts were excised quickly, mounted on a Langendorff apparatus and perfused at 75 mm Hg pressure with non-recirculating Krebs buffer containing 118.5 mM NaCl, 4.7 mM KCl, 1.2 mM MgSO4, 1.2 mM KH2 PO4, 24.8 mM NaHCO3, 2.5 mM CaCl2, and 10 mM glucose. The Krebs buffer was gassed with 95% O2 /5% CO2 resulting in a pH of 7.4-7.5. The temperature of the perfusate was maintained at 37° C.
A fluid-filled latex balloon connected to a transducer with PE240 tubing was inserted into the left ventricle. The balloon volume was adjusted to set the left ventricular diastolic pressure equal to 5-10 mm Hg at the beginning of the experiment. Total coronary artery flow was measured by timed collection of perfusate dripping from the heart with a graduated cylinder.
The coronary artery was occluded for 30 minutes and reperfused for 2 hours. Fostriecin was mixed with oxygenated perfusate in a separate reservoir to a concentration of 1 μM. Treatment was begun by opening the line from the drug-laden reservoir and closing the line from the reservoir containing pure buffer. After 2 hours of reperfusion, the coronary artery was re-occluded, and 1-10 μm zinc cadmium sulfide fluorescent particles (Duke Scientific, Palo Alto, Calif.) were infused into the perfusate to demarcate the risk zone. The heart was removed, weighed, frozen, and cut into 2 mm thick slices. The slices were thawed and stained by incubation for 20 minutes at 37° C. in 1% triphenyltetrazolium chloride (TTC) in pH 7.4 buffer. The areas of infarct (TTC negative) and risk zone (non-fluorescent under ultraviolet light) were determined by planimetry. Infarct and risk zone volumes were calculated by multiplying each area by the slice thickness and summing the products. Infarct size for each heart was expressed as a percentage of the risk zone infarcted. In an untreated rabbit heart approximately 33% of the ischemic tissue infarcts in this model.
Employing the well-characterized rabbit model described herein in Example 1, a controlled coronary occlusion was employed to induce reproducibly myocardial infarctions in isolated hearts. Defining the risk zone as the tissue normally supplied with oxygenated blood by the coronary artery before it is occluded, a 30 minute coronary occlusion produces an infarction that averages 33% of the risk zone (see data for control rabbits; FIG. 1). When the isolated hearts were treated with 1 μM fostriecin administered 15 minutes prior to the onset of ischemia and present during the 30 minute ischemic period, a significant decrease in infarct size to 9% of the risk zone was obtained (FIG. 1). This level of protection is equivalent to that seen in ischemic preconditioning (see Cohen M. V., et al., Cardiol. Rev. 3(3):137-49 (1995)), and represents a substantial decrease in the amount of myocardial tissue damaged.
Since the onset of a myocardial infarction usually cannot be predicted, a compound that provides protection when administered after the onset of ischemia is clinically far more useful than a compound that is effective only if administered before the coronary occlusion. […] The addition of 10 μM fostriecin 10 minutes after the onset of ischemia decreased infarction size to 19% of the risk zone. […]

Consider `CC(O)(/C=C/C1CC=CC(=O)O1)C(CC(O)\C=C/C=C\C=C\CO)OP(=O)(O)O` (centres unmarked) [fostriecin], for which the “infarct size, % of the risk zone” value was 9 % of the risk zone (1 μM fostriecin from 15 minutes prior to ischemia and during 30-minute coronary occlusion); 19 % of the risk zone (10 μM fostriecin added 10 minutes after onset of 30-minute ischemia). Where the note is “Oryctolagus cuniculus, 10 min, 10 μM fostriecin added 10 minutes after onset of ischemia, read-out: infarction smaller than in untreated hearts”, the inhibition at 10 µM was 43%. The hemodynamic effects result (isolated rabbit heart perfused with 1 μM fostriecin) was “No hemodynamic effects were observed”. Also, the “concentration found to provide protection” value (perfused rabbit hearts) fell in the range of 1 to 10 µM.
